These molecules were tested against T1, ATM (Homo sapiens, UniProt Q13315) (assay: ATM inhibition test (phosphorylation of Chk2 generated by ionizing radiation, AlphaScreen SureFire)). Conditions: phosphorylated Chk2 in NCI-H460 cells, ionizing radiation 8Gy, 1 hour after test compound treatment; read-out: ATM inhibitory activity.
T1 construct: detecting phosphorylation of Chk2 in a human non-small cell lung cancer cell line NCI-H460 (ATCC company); host or cells: NCI-H460 human non-small cell lung cancer cells
T1 sequence (Q13315 whole entry): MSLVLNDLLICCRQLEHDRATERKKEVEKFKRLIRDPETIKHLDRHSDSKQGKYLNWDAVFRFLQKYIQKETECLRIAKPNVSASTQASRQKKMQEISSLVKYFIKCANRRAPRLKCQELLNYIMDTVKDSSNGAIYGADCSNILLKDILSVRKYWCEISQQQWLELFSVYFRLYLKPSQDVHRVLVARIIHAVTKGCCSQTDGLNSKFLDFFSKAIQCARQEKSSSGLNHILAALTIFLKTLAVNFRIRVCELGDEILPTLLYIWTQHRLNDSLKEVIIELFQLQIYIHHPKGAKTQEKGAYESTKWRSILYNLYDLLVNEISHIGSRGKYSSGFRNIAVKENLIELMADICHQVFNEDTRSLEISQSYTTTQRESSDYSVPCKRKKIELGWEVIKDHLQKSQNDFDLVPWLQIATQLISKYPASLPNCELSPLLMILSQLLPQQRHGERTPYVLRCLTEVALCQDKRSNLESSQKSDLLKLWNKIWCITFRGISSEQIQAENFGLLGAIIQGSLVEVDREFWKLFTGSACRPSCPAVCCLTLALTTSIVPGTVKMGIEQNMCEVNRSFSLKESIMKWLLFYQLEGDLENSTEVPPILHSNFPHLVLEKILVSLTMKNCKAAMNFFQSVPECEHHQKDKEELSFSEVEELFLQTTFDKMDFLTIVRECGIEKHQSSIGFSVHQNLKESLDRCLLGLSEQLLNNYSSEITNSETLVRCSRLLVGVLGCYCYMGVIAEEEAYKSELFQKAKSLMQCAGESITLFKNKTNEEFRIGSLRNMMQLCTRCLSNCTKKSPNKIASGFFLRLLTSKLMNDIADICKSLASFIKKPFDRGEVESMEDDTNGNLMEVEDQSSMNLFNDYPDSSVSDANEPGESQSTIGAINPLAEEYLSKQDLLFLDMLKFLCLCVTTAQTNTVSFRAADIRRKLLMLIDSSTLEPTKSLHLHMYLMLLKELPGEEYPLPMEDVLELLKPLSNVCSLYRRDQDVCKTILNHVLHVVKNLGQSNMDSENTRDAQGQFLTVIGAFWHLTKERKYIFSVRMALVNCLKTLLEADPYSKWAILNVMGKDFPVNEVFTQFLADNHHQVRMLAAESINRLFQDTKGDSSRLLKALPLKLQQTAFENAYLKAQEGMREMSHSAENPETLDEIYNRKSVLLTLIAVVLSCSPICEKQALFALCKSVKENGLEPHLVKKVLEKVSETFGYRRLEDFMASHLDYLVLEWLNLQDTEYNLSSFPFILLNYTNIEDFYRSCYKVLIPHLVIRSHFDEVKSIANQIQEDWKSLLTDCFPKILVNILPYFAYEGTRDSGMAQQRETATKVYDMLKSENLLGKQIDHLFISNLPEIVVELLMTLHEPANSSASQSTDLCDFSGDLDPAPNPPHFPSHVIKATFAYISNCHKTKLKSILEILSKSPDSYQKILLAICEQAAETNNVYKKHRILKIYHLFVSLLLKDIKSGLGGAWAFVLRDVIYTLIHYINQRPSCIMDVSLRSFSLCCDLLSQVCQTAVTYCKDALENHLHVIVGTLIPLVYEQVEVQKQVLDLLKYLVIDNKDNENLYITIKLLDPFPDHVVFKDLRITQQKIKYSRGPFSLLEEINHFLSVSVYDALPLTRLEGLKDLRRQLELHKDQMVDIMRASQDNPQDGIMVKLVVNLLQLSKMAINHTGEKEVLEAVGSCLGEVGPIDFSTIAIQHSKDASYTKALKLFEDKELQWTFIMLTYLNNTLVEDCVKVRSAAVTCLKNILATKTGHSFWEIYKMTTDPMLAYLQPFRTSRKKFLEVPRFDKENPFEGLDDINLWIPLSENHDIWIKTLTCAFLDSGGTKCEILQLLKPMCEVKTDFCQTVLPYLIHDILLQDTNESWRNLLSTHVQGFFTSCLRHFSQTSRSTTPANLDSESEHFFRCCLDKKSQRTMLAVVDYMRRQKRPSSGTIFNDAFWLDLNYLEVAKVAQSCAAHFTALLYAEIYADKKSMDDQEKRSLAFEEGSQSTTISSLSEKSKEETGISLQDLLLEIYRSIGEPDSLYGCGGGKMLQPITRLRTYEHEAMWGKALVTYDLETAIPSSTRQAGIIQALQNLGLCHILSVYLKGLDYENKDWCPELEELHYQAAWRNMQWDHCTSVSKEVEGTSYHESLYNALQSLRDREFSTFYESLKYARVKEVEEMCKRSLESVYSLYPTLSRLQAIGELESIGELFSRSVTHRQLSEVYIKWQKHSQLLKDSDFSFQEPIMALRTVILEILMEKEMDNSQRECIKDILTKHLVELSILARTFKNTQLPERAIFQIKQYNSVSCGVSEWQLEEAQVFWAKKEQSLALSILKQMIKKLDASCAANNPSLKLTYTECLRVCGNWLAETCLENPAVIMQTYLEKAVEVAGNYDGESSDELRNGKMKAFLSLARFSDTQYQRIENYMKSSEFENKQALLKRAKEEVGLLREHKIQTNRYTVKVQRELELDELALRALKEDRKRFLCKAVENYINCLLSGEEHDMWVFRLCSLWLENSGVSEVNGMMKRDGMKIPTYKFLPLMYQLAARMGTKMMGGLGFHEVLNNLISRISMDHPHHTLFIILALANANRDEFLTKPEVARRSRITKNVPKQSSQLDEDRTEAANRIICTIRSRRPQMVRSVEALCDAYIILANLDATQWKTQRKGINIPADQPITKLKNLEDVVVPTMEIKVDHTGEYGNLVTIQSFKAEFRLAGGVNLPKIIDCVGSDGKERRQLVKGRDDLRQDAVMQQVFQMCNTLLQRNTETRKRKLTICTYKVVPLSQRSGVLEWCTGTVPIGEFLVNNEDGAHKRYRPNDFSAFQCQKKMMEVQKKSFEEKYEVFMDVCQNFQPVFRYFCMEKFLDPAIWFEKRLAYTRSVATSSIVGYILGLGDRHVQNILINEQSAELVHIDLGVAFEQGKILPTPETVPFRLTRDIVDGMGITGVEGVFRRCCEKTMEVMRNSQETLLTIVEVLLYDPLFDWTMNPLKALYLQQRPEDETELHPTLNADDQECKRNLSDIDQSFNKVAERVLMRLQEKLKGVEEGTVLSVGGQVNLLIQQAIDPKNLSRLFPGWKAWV
Format: cell-based
Summary of the method: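 NCI-H460 cells, compound 1 h pre-treatment, 8Gy IR, further 1 h at 37° C in 5% CO2. Read-out: phospho-Chk2 via AlphaScreen SureFire. % inhibition relative to IR-induced signal window (irradiated vs non-irradiated drug-free wells).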
With CN(C)c1ncc(CN2CCC(Nc3ccc4c(c3)Cc3cccc(-c5cc(N6CCOCC6)cc(=O)[nH]5)c3O4)CC2)cn1 [Example 2-28-13, 6-(7-((1-((2-(Dimethylamino)pyrimidin-5-yl)methyl)piperidin-4-yl)amino)-9H-xanthen-4-yl)-4-morpholino pyridin-2(1H)-one] the IC50 was 100 to 500 nM. CCN(CC)CC(Nc1ccc2c(c1)Sc1cccc(-c3cc(N4CCOCC4)cc(=O)[nH]3)c1S2)c1ncc(C)cn1 (stereo not shown) [Example 1-12-106, 6-(7-((2-(Diethylamino)-1-(5-methylpyrimidin-2-yl)ethyl)amino)thianthren-1-yl)-4-morpholino pyridin-2(1H)-one] was tested, and the IC50 was 100 to 500 nM. CNc1ncc(CN2CCC(Nc3ccc4c(c3)Cc3cccc(-c5cc(N6CCOCC6)cc(=O)[nH]5)c3O4)CC2)cn1 [Example 2-28-12, 6-(7-((1-((2-(Methylamino)pyrimidin-5-yl)methyl)piperidin-4-yl)amino)-9H-xanthen-4-yl)-4-morpholino pyridin-2 (1H)-one] was tested, and the IC50 was 500 to 2000 nM. Cc1ccc(CNc2ccc3c(c2)Cc2cccc(-c4cc(N5CCOCC5)cc(=O)[nH]4)c2O3)s1 [Example 2-14-40, 6-(7-(((5-Methylthiophen-2-yl)methyl)amino)-9H-xanthen-4-yl)-4-morpholino pyridin-2(1H)-one] gave an IC50 of 500 to 2000 nM. O=c1cc(N2CCOCC2)cc(-c2cccc3c2Oc2ccc(NCc4cnccc4Cl)cc2S3)[nH]1 [Example 4-4-18] was tested, and the IC50 was 100 to 500 nM. CC(Nc1ccc2c(c1)Sc1cccc(-c3cc(N4CCOCC4)cc(=O)[nH]3)c1S2)c1ccncn1 (stereo not shown) [Example 1-12-74, 4-Morpholino-6-(7-((1-(pyrimidin-4-yl)ethyl)amino)thianthren-1-yl)pyridin-2 (1H)-one] gave an IC50 of 100 to 500 nM. In the case of O=c1cc(N2CCOCC2)cc(-c2cccc3c2Oc2ccc(NCc4cncc(-c5cccnc5)c4)cc2S3)[nH]1 [Example 4-4-10, 6-(8-(([3,3′-Bipyridin)-5-ylmethyl)amino)phenoxathiin-4-yl)-4-morpholino pyridin-2(1H)-one], the IC50 is reported as 100 to 500 nM. Cc1cnc(C(CCN(C)C)CNc2ccc3c(c2)Sc2cccc(-c4cc(N5CCOCC5)cc(=O)[nH]4)c2S3)cn1 (stereo not shown) [Example 12-3, 6-(7-((4-(Dimethylamino)-2-(5-methylpyrazin-2-yl)butyl)amino)thianthren-1-yl)-4-morpholinopyridin-2(1H)-one] was tested, and the IC50 was 100 to 500 nM. Cc1ccc(CNc2ccc3c(c2)Cc2ccnc(-c4cc(N5CCOCC5)cc(=O)[nH]4)c2O3)nc1 [Example 2-42-2, 6-(7-(((5-Methylpyridin-2-yl)methyl)amino)-5H-chromeno[2,3-c]pyridin-1-yl)-4-morpholinopyridin-2(1H)-one] gave an IC50 of 100 to 500 nM. With Nc1ccc2c(c1)CCc1cccc(-c3cc(N4CCOCC4)cc(=O)[nH]3)c1O2 [Example 2-50, 6-(8-Amino-10,11-dihydrodibenz[b,f]oxepin-4-yl)-4-morpholinopyridin-2(1H)-one] the IC50 was 500 to 2000 nM. O=c1cc(N2CCOCC2)cc(-c2cccc3c2Sc2ccc(NC4CCN(C5CCCCC5)C4)cc2S3)[nH]1 (stereo not shown) [Example 1-24-9, 6-(7-((1-Cyclohexylpyrrolidin-3-yl)amino)thianthren-1-yl)-4-morpholinopyridin-2(1H)-one] showed an IC50 of 100 to 500 nM. Molecule CC(Nc1ccc2c(c1)Sc1cccc(-c3cc(N4CCOCC4)cc(=O)[nH]3)c1S2)c1cccc(CN(C)C)n1 (stereo not shown) [Example 1-12-111, 6-(7-((1-(6-((Dimethylamino)methyl)pyridin-2-yl)ethyl)amino)thianthren-1-yl)-4-morpholino pyridin-2(1H)-one] has an IC50 of 100 to 500 nM. With Cc1cccc(C(CCN2CCCC2)Nc2ccc3c(c2)Sc2cccc(-c4cc(N5CCOCC5)cc(=O)[nH]4)c2S3)n1 (stereo not shown) [Example 1-34-6, 6-(7-((1-(6-Methylpyridin-2-yl)-3-(pyrrolidin-1-yl)propyl)amino)thianthren-1-yl)-4-morpholino pyridin-2(1H)-one] the IC50 was 100 to 500 nM. Cc1cc(C(C)Nc2ccc3c(c2)Cc2cccc(-c4cc(N5CCOCC5)cc(=O)[nH]4)c2O3)ccn1 (stereo not shown) [Example 2-14-28, 6-(7-((1-(2-Methylpyridin-4-yl)ethyl)amino)-9H-xanthen-4-yl)-4-morpholino pyridin-2(1H)-one] was tested, and the IC50 was 100 to 500 nM. O=c1cc(N2CCOCC2)cc(-c2cccc3c2Oc2ccc(NC4CN(CCc5ccccc5)C4)cc2C3)[nH]1 [Example 2-19-6, 4-Morpholino-6-(7-((1-phenethylazetidin-3-yl)amino)-9H-xanthen-4-yl)pyridin-2(1H)-one] showed an IC50 of 100 to 500 nM. Work on Cc1cnc(C(CCN(C)C)Nc2ccc3c(c2)Sc2cccc(-c4cc(=O)cc(N5CCOCC5)o4)c2O3)cn1 (single isomer, unassigned) [Example 10-9, 2-(8-((3-(Dimethylamino)-1-(5-methylpyrazin-2-yl)propyl)amino)phenoxathiin-4-yl)-6-morpholino-4H-pyran-4-one] yielded an IC50 of less than 100 nM. In the case of CC(CNc1ccc2c(c1)Sc1cccc(-c3cc(N4CCOCC4)cc(=O)[nH]3)c1S2)CN1CCOCC1 (stereo not shown) [Example 8-4, 6-(7-((2-Methyl-3-morpholinopropyl)amino)thianthren-1-yl)-4-morpholinopyridin-2(1H)-one], the IC50 is reported as 100 to 500 nM. Work on Cc1ccc(C(CCN2CCCCC2)Nc2ccc3c(c2)Sc2cccc(-c4cc(N5CCOCC5)cc(=O)[nH]4)c2S3)nc1 (single isomer, unassigned) [Example 1-51-6, 6-(7-((1-(5-Methylpyridin-2-yl)-3-(piperidin-1-yl)propyl)amino)thianthren-1-yl)-4-morpholino pyridin-2(1H)-one] yielded an IC50 of less than 100 nM. With COCCN(C)CCNc1ccc2c(c1)Sc1cccc(-c3cc(N4CCOCC4)cc(=O)[nH]3)c1S2 [Example 1-10-12, 6-(7-((2-((2-Methoxyethyl) (methyl)amino)ethyl)amino)thianthren-1-y1)-4-morpholino pyridin-2(1H)-one] the IC50 was 100 to 500 nM. Work on O=c1cc(N2CCOCC2)cc(-c2cccc3c2Oc2ccc(NCc4cncs4)cc2C3)[nH]1 [Example 2-14-37, 4-Morpholino-6-(7-((thiazol-5-ylmethyl)amino)-9H-xanthen-4-yl) pyridin-2(1H)-one] yielded an IC50 of 500 to 2000 nM. With COc1cncc(C(C)Nc2ccc3c(c2)Cc2cccc(-c4cc(N5CCOCC5)cc(=O)[nH]4)c2O3)c1 (racemic) [Example 2-11-2, 6-(7-((1-(5-Methoxypyridin-3-yl)ethyl)amino)-9H-xanthen-4-yl)-4-morpholinopyridin-2(1H)-one] the IC50 was 100 to 500 nM. For O=c1cc(N2CCOCC2)cc(-c2cccc3c2Sc2ccc(NCCN4CCCC4)cc2S3)[nH]1 [Example 1-10-11], the IC50 was 100 to 500 nM. In the case of Cc1ccc(C(Nc2ccc3c(c2)Sc2cccc(-c4cc(N5CCOCC5)cc(=O)[nH]4)c2S3)[C@H]2CCN(C)C2)nc1 (single isomer, unassigned) [Example 1-56-15], the IC50 is reported as less than 100 nM. For CC(Nc1ccc2c(c1)Cc1cccc(-c3cc(N4CCOCC4)cc(=O)[nH]3)c1O2)c1ccncn1 (stereo not shown) [Example 2-14-50, 4-Morpholino-6-(7-((1-(pyrimidin-4-yl)ethyl)amino)-9H-xanthen-4-yl) pyridin-2(1H)-one], the IC50 was 500 to 2000 nM. In the case of CC1CCCCN1CC(CO)Nc1ccc2c(c1)Sc1cccc(-c3cc(N4CCOCC4)cc(=O)[nH]3)c1S2 (single isomer, unassigned) [Example 1-37-6, 6-(7-((1-Hydroxy-3-(2-methylpiperidin-1-yl)propan-2-yl)amino)thianthren-1-yl)-4-morpholino pyridin-2(1H)-one], the IC50 is reported as 100 to 500 nM.

From patent publication US9586951B2 (FUJIFILM Corporation, priority 2013, dated 2017)
